Experimental data published in ChEMBL document CHEMBL4765481, “Sialyltransferase Inhibitors Suppress Breast Cancer Metastasis” (J Med Chem, 2021).
pIC50: −log10 of the molar value. The source made the active and inactive calls. The rule behind the calls is not given here.

Legend:
MDA-MB-231 [1] = assay: Inhibition of Sialyltransferase in human MDA-MB-231 cells assessed as suppression of sialylation of integrin subunit beta1/beta3/beta4/beta5 at 10 to 20 um after 48 hrs by Western blot analysis; format: cell-based; details: dose 10-20 µM
MDA-MB-231 [2] = assay: Inhibition of Sialyltransferase in human MDA-MB-231 cells assessed as decrease p-talin-1 association with integrins beta1 and beta 3 after 48 hrs by immunofluorescence and coimmunoprecipitation assay; format: cell-based
MDA-MB-231 [3] = assay: Inhibition of Sialyltransferase in human MDA-MB-231 cells assessed as reduction in IKKalpha/beta Ser176/180 phosphorylation level at 10 to 20 uM incubated for 48 hrs by immunoblot analysis; format: cell-based; details: dose 10-20 µM
[4] = Apparent permeability at pH 7.4 by PAMPA
MDA-MB-231 [5] = assay: Inhibition of Sialyltransferase in human MDA-MB-231 cells assessed as reduction in FAK Tyr925 phosphorylation level at 10 to 20 uM incubated for 48 hrs by immunoblot analysis; format: cell-based; details: dose 10-20 µM
MDA-MB-231 [6] = assay: Inhibition of Sialyltransferase in human MDA-MB-231 cells assessed as reduction in NFkappaB Ser536 phosphorylation level at 10 to 20 uM incubated for 48 hrs by immunoblot analysis; format: cell-based; details: dose 10-20 µM
MDA-MB-231 [7] = assay: Inhibition of Sialyltransferase in human MDA-MB-231 cells assessed as reduction in integrin isoforms expression (alphaV/alpha5/beta1/beta3/beta4/beta5) at 10 to 20 uM incubated for 48 hrs by immunoblot analysis; format: cell-based; details: dose 10-20 µM
[8] = Toxicity in human MDA-MB-231 cells assessed as cell survival at >60 uM relative to control; format: cell-based; details: read-out: Survival
[9] = target: T1, Sialyltransferase ST3Gal-I (Rattus norvegicus) (UniProt Q6H8N0); assay: Inhibition of rat alpha-2,3-O-ST3GALI assessed as reduction in sialylated-product formation at 500 uM using p-nitrophenyl T-antigen and CMP-NeuSAc incubated for 15 mins by reverse-phase HPLC analysis relative to control
T1 sequence (whole entry): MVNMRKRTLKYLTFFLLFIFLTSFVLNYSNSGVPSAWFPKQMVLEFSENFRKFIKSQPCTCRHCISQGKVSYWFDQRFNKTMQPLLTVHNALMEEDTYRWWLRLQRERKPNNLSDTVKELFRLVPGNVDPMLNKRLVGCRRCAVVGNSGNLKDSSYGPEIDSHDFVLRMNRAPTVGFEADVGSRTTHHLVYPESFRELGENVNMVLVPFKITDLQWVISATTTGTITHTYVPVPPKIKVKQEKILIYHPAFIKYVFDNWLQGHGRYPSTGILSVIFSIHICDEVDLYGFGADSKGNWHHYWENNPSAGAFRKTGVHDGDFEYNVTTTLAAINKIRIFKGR

MDA-MB-231 [10] = assay: Inhibition of serum-induced cell migration of human MDA-MB-231 cells incubated for 16 hrs by Boyden chamber assay; format: functional, cell-based; details: MDA-MB-231, 16 h
Rattus norvegicus [11] = species on record: Rattus norvegicus; assay: Selectivity ratio of inhibition of rat alpha-2,3-O-ST3GALI at 1000 uM to IC50 for inhibition of rat alpha-2,3-N-ST3GALIII
MDA-MB-231 [12] = assay: Inhibition of Sialyltransferase in human MDA-MB-231 cells assessed as reduction in paxillin Tyr118 phosphorylation level at 10 to 20 uM incubated for 48 hrs by immunoblot analysis; format: cell-based; details: dose 10-20 µM
Rattus norvegicus [13] = species on record: Rattus norvegicus; assay: Selectivity ratio of inhibition of rat alpha-2,3-O-ST3GALI at 500 uM to IC50 for inhibition of rat alpha-2,3-N-ST3GALIII
[14] = target: T2, Beta-galactoside alpha-2,6-sialyltransferase 1 (Homo sapiens, UniProt P15907); assay: Inhibition of human alpha-2,6-ST6GAL1 assessed as reduction in sialylated-product formation using Gal-beta1-4GlcNac and CMP-NeuSAc incubated for 15 mins by reverse-phase HPLC analysis
T2 sequence (P15907 whole entry): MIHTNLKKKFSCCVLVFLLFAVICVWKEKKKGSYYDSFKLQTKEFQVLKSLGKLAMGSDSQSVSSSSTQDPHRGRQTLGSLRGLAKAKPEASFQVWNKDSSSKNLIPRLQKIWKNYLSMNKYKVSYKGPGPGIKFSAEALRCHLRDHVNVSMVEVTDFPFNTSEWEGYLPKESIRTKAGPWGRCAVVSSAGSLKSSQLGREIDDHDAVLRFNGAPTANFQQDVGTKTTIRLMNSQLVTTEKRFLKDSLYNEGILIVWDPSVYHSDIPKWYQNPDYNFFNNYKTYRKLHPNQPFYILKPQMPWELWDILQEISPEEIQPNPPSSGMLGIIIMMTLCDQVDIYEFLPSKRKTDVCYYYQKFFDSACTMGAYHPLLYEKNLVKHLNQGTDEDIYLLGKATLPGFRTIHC

[15] = Selectivity ratio of IC50 for of inhibition of rat alpha-2,3-O-ST3GALI to IC50 for inhibition of human alpha-2,6-ST6GAL1
[16] = target: T3, CMP-N-acetylneuraminate-beta-1,4-galactoside alpha-2,3-sialyltransferase (Rattus norvegicus, UniProt Q02734); assay: Inhibition of rat alpha-2,3-N-ST3GALIII assessed as reduction in sialylated-product formation using Gal-beta1-4Glc and CMP-NeuSAc incubated for 1.5 hrs by reverse-phase HPLC analysis
T3 sequence (Q02734 whole entry): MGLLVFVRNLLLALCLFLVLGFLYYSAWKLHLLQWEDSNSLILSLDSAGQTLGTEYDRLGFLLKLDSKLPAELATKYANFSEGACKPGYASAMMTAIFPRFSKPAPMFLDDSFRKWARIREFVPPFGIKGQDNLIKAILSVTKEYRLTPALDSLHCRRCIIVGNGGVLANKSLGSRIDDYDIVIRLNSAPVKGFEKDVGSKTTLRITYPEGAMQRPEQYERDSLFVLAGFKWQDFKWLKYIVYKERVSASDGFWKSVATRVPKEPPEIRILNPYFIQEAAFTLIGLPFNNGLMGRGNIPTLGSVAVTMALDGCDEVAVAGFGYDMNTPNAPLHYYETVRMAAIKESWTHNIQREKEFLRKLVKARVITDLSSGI

MDA-MB-231 [17] = assay: Inhibition of Sialyltransferase in human MDA-MB-231 cells assessed as reduction in FAK Tyr397 phosphorylation level at 10 to 20 uM incubated for 48 hrs by immunoblot analysis; format: cell-based; details: dose 10-20 µM
[18] = target: T1, Sialyltransferase ST3Gal-I (Rattus norvegicus); assay: Inhibition of rat alpha-2,3-O-ST3GALI assessed as reduction in sialylated-product formation at 1 mM using p-nitrophenyl T-antigen and CMP-NeuSAc incubated for 15 mins by reverse-phase HPLC analysis relative to control
MDA-MB-231 [19] = assay: Inhibition of Sialyltransferase in human MDA-MB-231 cells assessed as reduction in FAK Tyr576/577 phosphorylation level at 10 to 20 uM incubated for 48 hrs by immunoblot analysis; format: cell-based; details: dose 10-20 µM
MDA-MB-231 [20] = assay: Inhibition of serum-induced cell migration of human MDA-MB-231 cells at 20 uM incubated for 16 hrs by Boyden chamber assay; format: functional, cell-based
MDA-MB-231 [21] = assay: Inhibition of Sialyltransferase in human MDA-MB-231 cells assessed as reduction in IkappaB-alpha Ser32 phosphorylation level at 10 to 20 uM incubated for 48 hrs by immunoblot analysis; format: cell-based; details: dose 10-20 µM
MDA-MB-231 [22] = assay: Antiangiogenesis activity against luciferase-tagged human MDA-MB-231 cells xenografted in BALB/c mouse assessed as reduction in cell proliferation by measuring Ki67 expression at 10 mg/kg/3 days, ip measured after 50 days by immunostaining; format: functional, organism-based; details: time 50.0 day
MDA-MB-231 [23] = assay: Antitumor activity against luciferase-tagged human MDA-MB-231 cells xenografted in BALB/c mouse assessed as induction of delayed lung metastasis at 10 mg/kg/3 days, ip measured after 50 days; format: functional, organism-based; details: time 50.0 day
MDA-MB-231 [24] = assay: Antiangiogenesis activity against luciferase-tagged human MDA-MB-231 cells xenografted in BALB/c mouse assessed as reduction in number of vessels surrounding tumor nodules by measuring CD31 expression at 10 mg/kg/3 days, ip measured after 50 days by immunostaining; format: functional, organism-based; details: time 50.0 day
MDA-MB-231 [25] = assay: Antitumor activity against luciferase-tagged human MDA-MB-231 cells xenografted in BALB/c mouse assessed as induction of tumor suppression at 10 mg/kg/3 days, ip measured after 50 days; format: functional, organism-based; details: time 50.0 day
MDA-MB-231 [26] = assay: Antitumor activity against luciferase-tagged human MDA-MB-231 cells xenografted in BALB/c mouse assessed as reduction in number of metastatic foci in lungs at 10 mg/kg/3 days, ip measured after 50 days by histological analysis; format: functional, organism-based; details: time 50.0 day
MDA-MB-231 [27] = assay: Antitumor activity against luciferase-tagged human MDA-MB-231 cells xenografted in BALB/c mouse assessed as reduction in metastatic nodules in lymph node at 10 mg/kg/3 days, ip measured after 50 days by H and E staining based histological analysis; format: functional, organism-based; details: time 50.0 day

Q: Which inhibition (MDA-MB-231 [1]) does the source give for `C[C@H](CCC(=O)OCCOCCOCCOCCN=[N+]=[N-])[C@H]1CC[C@H]2[C@@H]3CC[C@@H]4C[C@H](OC(=O)[C@H](CC(=O)O)Nc5ccc([N+](=O)[O-])c6nonc56)CC[C@]4(C)[C@H]3CC[C@]12C` here?
A: The inhibition was “Active”.

Q: And the inhibition (MDA-MB-231 [2])?
A: The inhibition was “Dose-dependent effect”.

Q: And the inhibition (MDA-MB-231 [3])?
A: Its inhibition is “Active”.

Q: What about the Papp [4] of the same compound?
A: The Papp was 9 ×10⁻⁶ cm/s.

Q: And the inhibition (MDA-MB-231 [5])?
A: The inhibition was “Dose-dependent effect”.

Q: What about the inhibition (MDA-MB-231 [6]) of the same compound?
A: Its inhibition is “Active”.

Q: And the inhibition (MDA-MB-231 [7])?
A: The inhibition was “Dose-dependent effect”.

Q: What about the viability [8] of the same compound?
A: The viability was greater than 90%.

Q: What about the inhibition [9] of the same compound?
A: Its inhibition is 0%.

Q: And the pIC50 (MDA-MB-231 [10])?
A: The pIC50 was 4.92.

Q: What about the Selectivity ratio (Rattus norvegicus [11]) of the same compound?
A: The Selectivity ratio was less than 990.

Q: What about the inhibition (MDA-MB-231 [12]) of the same compound?
A: The inhibition was “Dose-dependent effect”.

Q: What about the Selectivity ratio (Rattus norvegicus [13]) of the same compound?
A: Its Selectivity ratio is greater than 495.

Q: What about the pIC50 [14] of the same compound?
A: The pIC50 was 5.31.

Q: What about the Ratio IC50 [15] of the same compound?
A: Its Ratio IC50 is greater than 102.

Q: What about the pIC50 [16] of the same compound?
A: Its pIC50 is 6.00.

Q: And the inhibition (MDA-MB-231 [17])?
A: Its inhibition is “Dose-dependent effect”.

Q: And the inhibition [18]?
A: Its inhibition is 50%.

Q: And the inhibition (MDA-MB-231 [19])?
A: The inhibition was “Dose-dependent effect”.

Q: And the inhibition (MDA-MB-231 [20])?
A: Its inhibition is “Active”.

Q: What about the inhibition (MDA-MB-231 [21]) of the same compound?
A: The inhibition was “Active”.

Q: Which Activity (MDA-MB-231 [22]) does the source give for `CC(=O)O[C@H]1C(=O)[C@@]2(C)[C@H]([C@H](OC(=O)c3ccccc3)[C@]3(O)C[C@H](OC(=O)[C@H](O)[C@@H](NC(=O)c4ccccc4)c4ccccc4)C(C)=C1C3(C)C)[C@]1(OC(C)=O)CO[C@@H]1C[C@@H]2O` here?
A: Its Activity is “Active”.

Q: And the Activity (MDA-MB-231 [23])?
A: Its Activity is “Active”.

Q: What about the Activity (MDA-MB-231 [24]) of the same compound?
A: The Activity was “Active”.

Q: What about the Activity (MDA-MB-231 [25]) of the same compound?
A: Its Activity is “Active”.

Q: What about the Activity (MDA-MB-231 [26]) of the same compound?
A: Its Activity is “Active”.

Q: And the Activity (MDA-MB-231 [27])?
A: Its Activity is “Active”.
